Assay results from PubChem BioAssay (NCI).
Values joined by “and” are separate entries in the source; they are usually repeats but may differ in a detail not shown here. Identical values can stand only once.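 Interpolation was linear, between the two tested concentrations surrounding the appropriate level; five concentrations were tested over 48 hours in 96-well plates. Abbreviation: GI50, concentration required for 50% inhibition of growth. The concentration for full growth arrest is given as TGI.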

Tests used:
Experiment in all cases: growth of human tumour cells (NCI), 48 h
SR leukemia = test system: SR leukemia
HS 578T breast = test system: HS 578T breast
HT29 colon = test system: HT29 colon
RXF 393 renal = test system: RXF 393 renal
HCT-15 colon = test system: HCT-15 colon
NCI-H226 lung = test system: NCI-H226 lung
EKVX NSCLC = test system: EKVX NSCLC

SMILES | GI50 (SR leukemia) | GI50 (HS 578T breast) [µM] | TGI (HS 578T breast) [µM] | GI50 (HT29 colon) | TGI (HT29 colon) [µM] | GI50 (RXF 393 renal) | TGI (RXF 393 renal) | GI50 (HCT-15 colon) | TGI (HCT-15 colon) [µM] | GI50 (NCI-H226 lung) | TGI (NCI-H226 lung) [µM] | TGI (SR leukemia) [µM] | GI50 (EKVX NSCLC) | TGI (EKVX NSCLC) [µM]
COc1cc(C(=O)NC2CCN(C)CC2)c(F)cc1Nc1ncc2c(n1)N(C1CCCC1)CC(F)(F)C(=O)N2C | < 10 nM | < 0.0342 | 10.4 | < 0.01 µM | 11.1 | < 0.0169 µM | 15.2 µM | < 0.0213 µM | 14 | 2.64 µM | 18.7 | – | – | –
Cc1ccc(CNc2c3ccccc3nc3cc(NC(=O)CCN4CCCC4)ccc23)cc1 | 301 nM | – | – | – | – | 0.414 µM | 1.57 µM | 1.29 µM | 2.63 | 1.02 µM | 2.46 | 1.82 | 0.862 µM | 2.25
C[CH2][Sn]([CH2]C)([O]C(=O)C(OC(C)=O)c1ccccc1)[O]C(=O)C(OC(C)=O)c1ccccc1 (centres undefined) | 24300 nM | 40 | > 100 | 46.7 µM | > 100 | 18.6 µM | 33.1 µM | 25.7 µM | 82.3 | 29 µM | 92.7 | > 100 | > 100 µM | > 100
C=C1C(=O)OC2C1C(OC(=O)/C(C)=C/C)CC(O)(CCl)C1C(O)C3OC3(C)C21O (centres undefined) | – | – | > 50 | – | > 50 | – | 26 µM | – | > 50 | – | > 50 | > 50 | – | > 50
COc1ccc(/C=C2\CCCC3=C2NC(N)=NC3c2ccc(OC)c(OC)c2)cc1OC (centres undefined) | 915 nM | 21.5 | > 100 | 7.75 µM | > 100 | 3.96 µM | 24.2 µM | 9.68 µM | > 100 | 3.02 µM | 20.2 | 22.6 | 39.7 µM | > 100
CCOc1ccccc1N=Nc1c(C)[nH]n(-c2nc(-c3ccccc3)cs2)c1=O | > 100000 nM | 29.2 | > 95.1 | 97.9 µM | > 100 | 16.4 µM | 38.4 µM | > 100 µM | > 100 | 32.5 µM | > 100 | > 100 | 32.6 µM | > 100
O=C(COc1ccc(/C=C2\Oc3ccccc3C2=O)cc1)Nc1nc2c(s1)CCCC2 | 590 nM | – | 7.78 | 3.21 µM | > 39.4 | – | – | 25.1 µM | > 100 | 8.55 µM | 42 | 2.44 | 10.7 µM | > 100
CC1(C)[C@@H](OC(N)=O)[C@H]2O[C@H]2[C@]2(CO)[C@H]3CC[C@]4(C)[C@@H](c5ccc(=O)oc5)[C@@H](Cl)C[C@]4(O)C3=CC[C@@H]12 | 6.81 nM | 0.00524 | 0.0207 | 0.00796 µM | 0.0238 | 0.00716 µM | 0.0829 µM | 0.00798 µM | 0.0304 | 0.0061 µM | 0.0152 | 0.0195 | 0.00534 µM | < 0.0138
O=C1c2ccccc2-c2c1c1ccccc1c(=O)n2CCN1CCOCC1 | – | > 100 | > 100 | 57.8 µM | > 100 | 49 µM | > 100 µM | 78.5 µM | > 100 | 73.9 µM | > 100 | – | 98.8 µM | > 100
CN1CC[C@@H](c2c(O)cc(O)c3c(=O)cc(-c4ccccc4Cl)oc23)[C@@H]1CO | 107 nM | 0.233 | 1 | 0.442 µM | 6.66 | 0.192 µM | 0.43 µM | 0.351 µM | > 10 | 0.239 µM | 0.878 | 0.573 | 0.372 µM | > 8.02
O=C(NN1C(=O)CSC12CCCC2)c1[nH]c2ccc(Br)cc2c1-c1ccccc1 | – | 96.8 | > 100 | 30.7 µM | > 100 | 31.2 µM | > 100 µM | 43.2 µM | > 100 | > 100 µM | > 100 | – | > 100 µM | > 100
Clc1nc(Cl)c2ncn(C/C=C/COc3cccc(OC/C=C/Cn4cnc5c(Cl)nc(Cl)nc54)c3)c2n1 | – | 39.4 | > 100 | > 100 µM | > 100 | 65 µM | > 100 µM | 57.7 µM | > 100 | > 100 µM | > 100 | – | > 100 µM | > 100
COc1ccc(C2SC(C)C(=O)N2NC(=O)C(O)c2ccccc2)cc1OC (centres undefined) | > 100000 nM | > 100 | > 100 | > 100 µM | > 100 | > 100 µM | > 100 µM | > 100 µM | > 100 | > 100 µM | > 100 | > 100 | > 100 µM | > 100
O=C(NC[C@H](O)CO)c1ccncc1Nc1ccc(I)cc1F | > 10000 nM and 52400 nM | > 64.1 | > 100 | 0.00409 µM and < 0.011 µM | > 38.7 | 0.678 µM and 1.6 µM | > 10 µM and 29.1 µM | 3.53 µM and 5.62 µM | > 100 | > 6.36 µM and 1.4 µM | > 100 | > 100 | 0.194 µM and 0.313 µM | > 100
CCN(CC)Cc1ccc(Nc2nccc(-c3cnn4ncccc34)n2)cc1 | 7.95 nM | 0.0164 | 0.117 | 0.0121 µM | 0.0984 | 0.0063 µM | 0.0147 µM | 0.0265 µM | > 25 | – | – | – | 0.0498 µM | –
C[C@]12CC[C@H]3[C@@H](CC[C@]4(O)C[C@@H](O)CC[C@]34/C=N/O)[C@@]1(O)CC[C@@H]2C1=COC(=O)C1 | – | – | > 100 | – | 0.594 | – | 0.091 µM | – | 0.45 | – | 1.35 | – | – | 0.344
O=C(Nc1cccc(NC(=O)Nc2cc(C(F)(F)F)ccc2Cl)c1)Nc1cc(C(F)(F)F)ccc1Cl | – | 2.64 | 8.81 | 4.26 µM | 66.1 | – | – | 0.566 µM | > 100 | 1.85 µM | 9.28 | – | – | –
Cn1cc(C2=C(c3cccc(OCC(O)CO)c3)C(=O)NC2=O)c2ccccc21 (centres undefined) | > 25000 nM | > 15.2 | > 25 | > 25 µM | > 25 | > 25 µM | > 25 µM | > 25 µM | > 25 | > 25 µM | > 25 | > 25 | – | –
